Measured values from publication PMC5597618, “Identification and characterization of the novel reversible and selective cathepsin X inhibitors” (Scientific Reports, 2017).

Legend:
PC-3 cells [1] = assay: Cellular uptake and retention by LC-MS/MS; type: in vitro ADME, human; conditions: 50 µM, after 1 hour
Method: Evaluation of cellular uptake and retention of compound 22: sample preparation and LC- […]
PC-3 cells were treated for 1 hour with compound 22 (50 µM). Cells were washed twice with cold PBS, trypsinized, washed once more and centrifuged. A pellet of cells was resuspended in 200 µL of PBS (or in 200 µL of PBS containing 5µM inhibitor for standard addition) and transferred to 1.5 mL Eppendorf vials prefilled with 0.1 mm and 0.5 mm glass beads (NextAdvance, USA). All cell samples were then homogenized with a BulletBlender (NextAdvance, USA) for 5 min at speed setting »6«. […]
(2.30;50), (2.50;50), (2.6;5). […] ESI Jetstream parameters were set as follows: drying gas temperature 275 °C, drying gas flow 5 L/min, nebulizer 45 psi, sheath gas temperature 320 °C, sheath gas flow 11 L/min, capillary entrance voltage 4000 V and nozzle voltage 1000 V. Quadrupoles Q1 and Q3 were set at the widest resolution (2.5 amu) and multiple reaction monitoring (MRM) mass transitions used for the quantification of recorded traces are presented in Supplementary Table S4. […]
PC-3 cell lysate was diluted in cathepsin X assay buffer (1 mg/ml protein concentration). […] After blocking with 5% skimmed milk powder in TBS with 0.05% Tween 20, membrane was incubated with streptavidin-HRP (1:5000; Jackson ImmunoResearch) for 1 hour and proteins were detected with […]

PC-12 cells = assay: Cytotoxicity assay (MTS) in PC-12 cells; type: cell-based, rat; conditions: up to 10 μM, 24 and 48 hours
Method: (§1) Human prostate cancer cell line PC-3 cells (obtained from ATCC, Manassas, USA; ATCC Number: CRL-1435) were cultured in F-12 (Gibco) and Advanced DMEM (Gibco) (1:1) with 10% FBS, 1% penicillin/streptomycin and 1% L-glutamine. Rat pheochromocytoma PC-12 cells (obtained from ATCC, Manassas, USA; ATCC Number: CRL-1721) were cultured in Advanced DMEM (Gibco) with 5% FBS, 10% heat-inactivated horse serum, 1% penicillin/streptomycin and 1% L-glutamine.
(§2) 6.5 × 10^4 PC-3 cells/ml were seeded in a 96-well plate. PC-12 cells were seeded on poly-L-lysine (Sigma) coated plates in serum-free medium at a concentration of 4 × 10^4/well. Cells were treated with various concentrations of compounds (1, 2.5, 5 and 10 μM) for 24 or 48 hours. Cytotoxicity was determined with MTS reagent (CellTiter 96 Aqueous One Solution Cell Proliferation Assay, Promega) and A492 measured after 1 hour.

PC-3 cells [2] = assay: Cytotoxicity assay (MTS) in PC-3 cells; type: cell-based, human; conditions: up to 10 μM, 24 and 48 hours
Method: as §1, §2

cathepsin B = target: T1, cathepsin B (Homo sapiens, UniProt P07858); assay: Labeling of cathepsin B with activity-based probe DCG-04 in PC-3 cell lysate; type: biochemical; conditions: 10 µM inhibitor
T1 construct: endogenous in cells; host or cells: PC-3

cathepsin X = cathepsin X (Homo sapiens, UniProt Q9UBR2); assay: Determination of Ki values and inhibition mechanism against cathepsin X (Abz-FEK(Dnp)-OH substrate); type: biochemical; parameters: made in house; host or cells: Pichia pastoris; conditions: second group
Sequence of cathepsin X (Q9UBR2 62-303): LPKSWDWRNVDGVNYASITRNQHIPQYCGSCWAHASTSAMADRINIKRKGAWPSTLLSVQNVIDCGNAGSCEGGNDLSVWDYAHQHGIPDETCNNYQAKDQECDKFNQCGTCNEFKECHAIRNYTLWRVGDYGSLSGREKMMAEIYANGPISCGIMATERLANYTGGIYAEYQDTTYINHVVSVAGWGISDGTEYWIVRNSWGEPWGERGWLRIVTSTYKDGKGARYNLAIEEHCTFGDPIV
Method: Recombinant or native human cathepsins were used: recombinant cathepsin X and cathepsin S were expressed in Pichia pastoris, recombinant cathepsins B and L in E. coli, [43], native cathepsin H was isolated from human liver. Assay buffers for determining activities of cathepsins X and L consisted of 100 mM sodium acetate buffer, pH 5.5, for cathepsins H, S and B (endopeptidase activity) of 100 mM phosphate buffer pH 6.8, 6.5 and 6.0, respectively and for cathepsin B (exopeptidase activity) of 60 mM acetate buffer pH 5.0. Each assay buffer contained 0.01% Triton X-100 to prevent false positive inhibition due to aggregation of compounds[45], 5 mM cysteine, 1.5 mM EDTA and 0.1% PEG 8000. Enzymes were activated at 37 °C for 5 min before the assays.
Ki was determined by measuring the initial rate of hydrolysis at three different substrate concentrations (Supplementary Table S2) in the presence of seven different compound concentrations (0, 20, 40, 60, 80, 100 and 200 μM). 90 μL of the activated cathepsin was added to a black 96-well plate with 5 μL of the substrate and 5 μL of the compound. Formation of the fluorescent degradation product was monitored continuously at 460 nm ± 10 nm with excitation at 380 nm ± 20 nm (for AMC substrates) and, as noted above for Abz substrates, at 37 °C. All measurements were performed twice and in duplicate. The resulting data were analyzed by non-linear regression using the software SigmaPlot®, Enzyme Kinetics Module™ 1.3 and were fitted to the equation v = v max [S]/([S] (1 + [I]/αK i ) + K m (1 + [I]/K i )) (first group of compounds). For Ki determination against cathepsin X for the compounds from the second group, progress curves in the absence and presence of each putative inhibitor were fitted to the reaction mechanism presented in Fig. 3b. In this case the resulting data as well as reactivation curves were fitted to the equation system presented in Fig. 3c using ENZO application. For calculation of kinetic parameters from reaction progress curves the fluorescence coefficient for conversion of arbitrary fluorescence units to concentration was first determined. The fluorescence coefficient was calculated as the slope from the plot of initial substrate concentration vs. height of the plateau of the progress curve after complete hydrolysis of increasing concentrations of substrate, using linear regression.
Supplementary Table S2. Substrates used for the various cathepsins and their concentrations […]
Enzyme Substrate Concentration (µM) Reference/Company cathepsin X Abz-FEK(Dnp)-OH 3.25, 6.5, 13 Puzer et al.3 cathepsin B - endopept. Z-RR-AMC 60, 180, 360 Bachem cathepsin B - exopept. Abz-GIVRAK(Dnp)-OH 1, 3, 6 Bachem cathepsin S Z-VVR-AMC 0.5, 1, 1.5 Biomol cathepsin L Z-FR-AMC 0.5, 1, 4 Bachem cathepsin H Z-R-AMC 20, 80, 160 Biomol […]

% of 22 in the cell media (PC-3 cells [1]): 84% | inhibition of cathepsin B labeling by DCG-04 (cathepsin B): weak inhibition | Inhibition mechanism (cathepsin X; ENZO): competitive | Ki (cathepsin X; progress curve analysis with ENZO): 2450 ± 50 nM
Structure (SMILES): CC(C)n1cnnc1SCC(=O)c1ccc2c(c1)OCCO2 [Compound 22, 1-(2,3-Dihydrobenzo[b][1,4]dioxin-6-yl)-2-((4-isopropyl-4H-1,2,4-triazol-3-yl)thio)ethan-1-one]
cytotoxicity to PC-12 cells (PC-12 cells): not cytotoxic | cytotoxicity to PC-3 cells (PC-3 cells [2]): not cytotoxic
